The source of these data is the OPERA property sets (Mansouri et al. 2018).

Settings in one data set: not given
For orientation: melting point means the temperature, or range, at which the solid turns liquid. Regarding `CCNc1nc(Cl)nc(N(CC)CC)n1`, the log10 Koc (L/kg) was determined as 2.76 and the melting point was determined as 101 °C.
`O=C(O)C1C(c2ccccc2)C(C(=O)O)C1c1ccccc1` (centres undefined) returned a melting point of 228 °C.
A word on the boiling point: it is the temperature of boiling at a given pressure. Compound `O=C=O` registered a boiling point of -78.5 °C, a log10 vapour pressure (mmHg) of 4.68 and a melting point of -56.5 °C.
Compound `Clc1cc(Cl)c(-c2c(Cl)cccc2Cl)c(Cl)c1` had a melting point of 85 °C.
As for `Clc1ccccc1-c1cccc(Cl)c1Cl`, the log10 Henry constant (atm·m³/mol) was -3.7.
Turning to `CN1CCCC1`, the boiling point came out at 81 °C, the log10 Henry constant (atm·m³/mol) was -4.52, the log10 Koa was determined as 3.64 and the log10 vapour pressure (mmHg) was 2.
The compound `CC=NNc1ccc([N+](=O)[O-])cc1[N+](=O)[O-]` yielded a melting point of 166 °C.
On the same count and under the same terms, then `CCCCCCCCCCCC1=C(O)C(=O)C=C(O)C1=O`, with 142 °C.
Compound `COC(CBr)OC` showed a boiling point of 149 °C.
Consider `CCCCCCOCCCCCC`, for which the boiling point amounted to 223 °C and the log10 vapour pressure (mmHg) was -1.34.
`CC1=C2[C@H]3OC(=O)[C@@H](C)[C@@H]3CC[C@@]2(C)C=CC1=O`: the melting point was determined as 175 °C.
Same read-out and setting: then `CC1=CC(=O)O[C@@]2(C1)C[C@H]1CC[C@@H]2CN1C`, with 54.5 °C; and `CCCCCCCCCCCCCCC=O`, with 24.5 °C.
Regarding `C=Cc1cccc(Cl)c1`, the log10 vapour pressure (mmHg) was -0.0083 and the ready biodegradability entry is “not readily biodegradable”.
Consider `CSCC[C@H](NC(C)=O)C(=O)O`, for which the melting point amounted to 106 °C.
Still for that read-out and setting: the figure for `CCCCCCCCCCC(Br)C(=O)O` (centres undefined) is 32 °C.
As to `CCCCCCOC`, the boiling point amounted to 126 °C.
In turn, `O=C1c2ccccc2C(=O)N1CCBr` showed a melting point of 82.5 °C.
Same read-out and setting: then `CC(C)CCC[C@@H](C)[C@H]1CC[C@H]2[C@@H]3CC=C4C[C@@H](OC(=O)Cc5ccc(N(CCCl)CCCl)cc5)CC[C@]4(C)[C@H]3CC[C@]12C`, with 90 °C; and `CCOc1ccc([N+](=O)[O-])cc1N`, with 96.5 °C.
For `CCC(N)(CO)CO`, the melting point was 37.5 °C and the ready biodegradability entry was “not readily biodegradable”.
`Cc1ccc(O)c([N+](=O)[O-])c1`: the log10 Henry constant (atm·m³/mol) was -4.83, the melting point was found to be 36.5 °C and the ready biodegradability result is “not readily biodegradable”.
`CCCCCCCCCCCCCC` showed a boiling point of 254 °C, a log10 biodegradation half-life (days) of 1.36, a log10 vapour pressure (mmHg) of -1.94 and a melting point of 5.8 °C. For the same compound, the ready biodegradability result was “readily biodegradable”.
The compound `O=CNC(Nc1ccc(Cl)c(Cl)c1)C(Cl)(Cl)Cl` (centres undefined) gave a melting point of 135 °C.
The compound `COc1cc(Cl)c(Cl)c(Cl)c1O` had a log10 Koc (L/kg) of 2.8 and a log10 vapour pressure (mmHg) of -2.73.
With `CC(C)=CCCC(C)O` (centres undefined), the boiling point was determined as 175 °C.
Regarding `C=CC(Cl)Cl`, the boiling point came to 84.4 °C and the log10 vapour pressure (mmHg) came out at 1.85.
Consider `CC(C)(C)C1CCCCC1O` (centres undefined), for which the melting point was found to be 45 °C.
With `O=C(Cl)c1ccccc1Cl`, the boiling point is 238 °C and the melting point was -4 °C.
As for `Clc1cc(Cl)c(Cl)c(Cl)c1Cl`, the boiling point is 277 °C, the log10 Henry constant (atm·m³/mol) was -3.15, the log10 Koa worked out at 6.49 and the log10 Koc (L/kg) was determined as 3.5. In addition, the log10 vapour pressure (mmHg) is -3, the melting point was determined as 86 °C and the ready biodegradability result is given as “not readily biodegradable”.
Consider `CC[Si](Cl)(CC)CC`, for which the boiling point came out at 144 °C and the log10 vapour pressure (mmHg) is 0.83.
For the compound `CC(C=CC=CC(C)=CC=CC(C)=CC=C1C(C)=CC(=O)CC1(C)C)=CC=CC(C)=CC=C1C(C)=CC(=O)CC1(C)C`, the melting point was 219 °C.
The same measure, in the same setting: the figure for `O=C1CSC(=O)N1` is 128 °C.
The compound `CC[C@@H](O)[C@@H]1CCCCN1` yielded a boiling point of 226 °C and a melting point of 121 °C.
Consider `CCOC(=O)C(Br)C(=O)OCC`, for which the melting point was -54 °C.
The compound `CC1(C)C(=O)[C@@]2(C)CC[C@@H]1C2` displayed a boiling point of 193 °C.
Regarding `BrCCCCOc1ccccc1`, the melting point was 41 °C.
On the same count and under the same terms, the figure for `Cc1ccccc1NC(=S)Nc1ccccc1C` is 158 °C.
For `CC1=CCC(=C(C)C)CC1`, the boiling point was determined as 186 °C, the log10 Henry constant (atm·m³/mol) is -1.58, the log10 vapour pressure (mmHg) was -0.129 and the ready biodegradability entry is “readily biodegradable”.
Consider `CCCCC(=O)OCC`, for which the boiling point amounted to 146 °C, the log10 Koc (L/kg) was determined as 1.97, the log10 vapour pressure (mmHg) came out at 0.681 and the melting point is -91.2 °C.
As to `N#Cc1ccc2[nH]ccc2c1`, the melting point amounted to 107 °C.
Take `CC1CCc2ccccc2O1` (centres undefined): the boiling point worked out at 224 °C.

Staying with this data set, now noted: fish.
With `Cc1ccc(O)c([N+](=O)[O-])c1`, the log10 BCF stood at 0.95.
`CCCCCCCCCCCCCC`: the log10 biotransformation half-life (days) was 1.49.
On to `COc1cc(Cl)c(Cl)c(Cl)c1O`, for which the log10 BCF came to 1.97.
On to `Clc1cc(Cl)c(Cl)c(Cl)c1Cl`, for which the log10 BCF came out at 3.75 and the log10 biotransformation half-life (days) was 1.87.
